Molecules are shown by their SMILES. Where a name gives a salt, the structure may show the parent alone.

The values that follow come from patent US20060252780A1, “Fused pyrimidine derivatives” (Kyowa Hakko Kogyo Co., Ltd., priority 2003, published 2006).

The test system of the assay is Pancreatic β cell line MIN6 cells. In words: Insulin secretion stimulating activity in cultured β cells (MIN6), insulin in the supernatant by enzyme immunoassay or radioimmunoassay. In kind it is cell-based. The note with it: drug concentration 1.0 μmol/L, 14.5 mmol/L glucose, 45 min after stimulation, average of 3 to 4 tests, None (no drug) 148.4. As for the experimental part: Insulin Secretion Stimulating Activity in Cultured β Cells
Pancreatic β cell line MIN6 cells reported by Miyazaki, et al. [see Endocrinology, (1990) 127, p. […] 1139-1145]. In MIN6 cells, insulin secretion increase responding to a sulfonylurea agents, such as Glybenclamide, which are used as a therapeutic agent for diabetes (Cellular Signaling, (1993) 5, p. 777-786). Therefore, the above-mentioned culture of MIN6 cells and an insulin secretion test using the MIN6 cells were performed according to the method described in Diabetologia, (1993) 36, p. 1139-1145.
The effects of a compound on an insulin secretion activity under the presence of 14.5 mmol/L glucose was determined by measuring insulin amount in cell-culture supernatant collected as follows:
MIN6 cells cultured in a 24-well plate were washed twice with 1 mL of buffer solution A (pH 7.3) containing 2 mmol/L glucose. Buffer solution A consists of 119 mmol/L sodium chloride, 4.74 mmol/L potassium chloride, 2.54 mmol/L calcium chloride, 1.19 mmol/L magnesium sulfate, 1.19 mmol/L potassium dihydrogen phosphate, 10 mmol/L 2-[4-(2-hyroxyethyl)-1-piperazinyl]ethane sulfonic acid and 0.1% bovine serum albumin. Then, the cells were incubated in 1 mL of buffer solution A containing 2 mmol/L glucose at 37° C. for 45 minutes. After the incubation, the culture supernatant was exchanged with 0.9 mL of buffer solution A containing each test compound at various concentrations and 2 mmol/L glucose. The cells were further incubated at 37° C. for 15 minutes. Then, the MIN6 cells were stimulated with glucose by adding 0.1 mL of buffer solution A containing 127 mmol/L glucose (a final glucose concentration: 14.5 mmol/L). After the stimulation, the cells were further incubated at 37° C. for 45 minutes, and the supernatant was collected.
Antibody reactive insulin secreted in the culture supernatant was diluted with a phosphate buffer solution containing 1% bovine serum albumin, 0.1% Tween 20, 0.12% ethylenediaminetetraacetic acid (EDTA) disodium salt and 0.1% sodium azide, and then quantitatively measured by enzyme immunoassay or radioimmunoassay. The insulin levels were indicated as the amount of human insulin (ng/mLY. The results are indicated by averages (avg) and standard errors (se) of 3 to 4 tests.
As for `CCCN1C(=O)N2C[C@@H](Cc3ccccc3)N=C2c2nn(C3CCCC3)cc21` [Compound 10, (R)-8-Benzyl-2-cyclopentyl-7,8-dihydro-4-propyl-2H-imidazo[1,2-c]pyrazolo[3,4-e]pyrimidin-5(4H)-one hydrochloride], the “Insulin secretion content (ng/mL) ave” value was found to be 184.7 ng/mL. The same measure for `CCCN1C(=O)N2CC(Cc3ccc(Cl)cc3)N=C2c2cn(-c3ccccc3)nc21` (stereo not shown) [Compound 5, 2-(4-Chlorobenzyl)-2,3-dihydro-8-phenyl-6-propyl-8H-imidazo[1,2-c]pyrazolo[4,3-e]pyrimidin-5(6H)-one]: 190.9 ng/mL. In the case of `CCCN1C(=O)N2C[C@@H](Cc3ccccc3)N=C2c2cc(-c3ccccc3)[nH]c21` [Compound 1, (R)-2-Benzyl-2,3-dihydro-8-phenyl-6-propyl-7H-imidazo[1,2-c]pyrrolo[3,2-e]pyrimidin-5(6H)-one] it was 204.3 ng/mL; in that of `CCCN1C(=O)N2CC(Cc3ccncc3)N=C2c2cn(-c3ccccc3)nc21` (stereo not shown) [Compound 6, 2,3-Dihydro-8-phenyl-6-propyl-2-(4-picolyl)-8H-imidazo[1,2-c]pyrazolo[4,3-e]pyrimidin-5(6H)-one], 172.5 ng/mL. In the case of `CCCN1C(=O)N2C[C@@H](Cc3ccccc3)N=C2c2cn(-c3ccccc3)nc21` [Compound 3, (R)-2-Benzyl-2,3-dihydro-8-phenyl-6-propyl-8H-imidazo[1,2-c]pyrazolo[4,3-e]pyrimidin-5(6H)-one] it was 213.2 ng/mL; in that of `CCCN1C(=O)N2C[C@@H](Cc3ccccc3)N=C2c2cn(C3CCCC3)nc21` [Compound 7, (R)-2-Benzyl-8-cyclopentyl-2,3-dihydro-6-propyl-8H-imidazo[1,2-c]pyrazolo[4,3-e]pyrimidin-5(6H)-one hydrochloride], 224.8 ng/mL. For `CCCN1C(=O)N2CC(Cc3ccc(F)cc3)N=C2c2cn(-c3ccccc3)nc21` (stereo not shown) [Compound 4, 2-(4-Fluorobenzyl)-2,3-dihydro-8-phenyl-6-propyl-8H-imidazo[1,2-c]pyrazolo[4,3-e]pyrimidin-5(6H)-one], the “Insulin secretion content (ng/mL) ave” value was found to be 212.1 ng/mL. The same measure for `CCCN1C(=O)N2C[C@@H](Cc3ccccc3)N=C2c2[nH]c(-c3ccccc3)cc21` [Compound 2, (R)-8-Benzyl-7,8-dihydro-2-phenyl-4-propyl-1H-imidazo[1,2-c]pyrrolo[2,3-e]pyrimidin-5(4H)-one]: 187.1 ng/mL. The same measure for `CCCN1C(=O)N2C[C@@H](Cc3ccccc3)N=C2c2nn(-c3ccccc3)cc21` [Compound 9, (R)-8-Benzyl-7,8-dihydro-2-phenyl-4-propyl-2H-imidazo[1,2-c]pyrazolo[3,4-e]pyrimidin-5(4H)-one]: 174.3 ng/mL; for `CCCN1C(=O)N2C[C@@H](Cc3ccncc3)N=C2c2cn(C3CCCC3)nc21` [Compound 8, (R)-8-Cyclopentyl-2,3-dihydro-6-propyl-2-(4-picolyl)-8H-imidazo[1,2-c]pyrazolo[4,3-e]pyrimidin-5(6H)-one]: 183.9 ng/mL.
